Measured values from patent publication US7960377B2 (priority 2008, dated 2011).
Like-named read-outs stand apart in the source and are kept apart here.

Columns and labels:
Assay in all cases: cell-based
human CB2 receptor = human CB2 receptor (Homo sapiens, UniProt P34972); assay type: cell-based
rat CB2 receptor = molecular target: T1, rat CB2 receptor (Rattus norvegicus, UniProt Q9QZN9); assay type: cell-based; conditions: for inverse agonist mark, rat CB2 receptor: asterisk at the compound number
T1 sequence (Q9QZN9 1-360): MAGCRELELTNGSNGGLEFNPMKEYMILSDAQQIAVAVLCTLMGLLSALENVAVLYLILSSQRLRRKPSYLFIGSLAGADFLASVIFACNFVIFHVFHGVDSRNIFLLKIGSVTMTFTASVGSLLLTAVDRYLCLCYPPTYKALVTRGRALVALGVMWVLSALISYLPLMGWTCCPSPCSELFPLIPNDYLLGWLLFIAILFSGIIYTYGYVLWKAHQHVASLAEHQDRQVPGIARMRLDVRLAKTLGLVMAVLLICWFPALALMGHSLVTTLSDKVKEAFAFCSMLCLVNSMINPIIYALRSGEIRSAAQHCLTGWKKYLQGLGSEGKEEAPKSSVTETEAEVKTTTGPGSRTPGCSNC

human CB1 receptor = human CB1 receptor (Homo sapiens, UniProt P21554)
[1] = change in intracellular cAMP, CHO-K1 hCB2 cells, class AR, read-out: EC50 values for human CB2 receptor
[2] = asterisk at the compound number

Chain of human CB1 receptor (P21554 whole entry): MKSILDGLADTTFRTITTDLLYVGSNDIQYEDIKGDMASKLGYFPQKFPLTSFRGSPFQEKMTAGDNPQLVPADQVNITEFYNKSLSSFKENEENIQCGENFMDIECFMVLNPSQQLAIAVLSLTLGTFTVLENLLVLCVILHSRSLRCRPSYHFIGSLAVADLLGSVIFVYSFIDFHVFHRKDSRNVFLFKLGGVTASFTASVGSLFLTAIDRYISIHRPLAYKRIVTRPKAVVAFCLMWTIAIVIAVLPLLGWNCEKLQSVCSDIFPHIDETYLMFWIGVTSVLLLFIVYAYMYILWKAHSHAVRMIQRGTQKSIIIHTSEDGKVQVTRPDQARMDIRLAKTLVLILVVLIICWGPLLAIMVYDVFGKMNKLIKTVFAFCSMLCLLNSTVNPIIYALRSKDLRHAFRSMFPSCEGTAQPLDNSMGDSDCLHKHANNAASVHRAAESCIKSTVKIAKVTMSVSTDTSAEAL
Chain of human CB2 receptor (P34972 whole entry): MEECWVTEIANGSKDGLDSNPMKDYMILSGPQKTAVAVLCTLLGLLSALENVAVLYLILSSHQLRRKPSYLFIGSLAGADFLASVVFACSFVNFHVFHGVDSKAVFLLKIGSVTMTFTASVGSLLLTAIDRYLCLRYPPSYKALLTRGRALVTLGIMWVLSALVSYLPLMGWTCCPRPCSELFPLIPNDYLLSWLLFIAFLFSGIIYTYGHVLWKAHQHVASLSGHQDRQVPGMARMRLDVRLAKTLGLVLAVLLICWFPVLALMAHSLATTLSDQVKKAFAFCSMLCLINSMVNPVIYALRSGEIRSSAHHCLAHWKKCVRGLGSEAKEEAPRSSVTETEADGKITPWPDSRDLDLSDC

SMILES | EC50 (human CB2 receptor) [µM] | EC50 (rat CB2 receptor) [µM] | EC50 (human CB1 receptor) [µM] | further results
CC(C)(C)NC(=O)c1cnc2c(c1)N(S(=O)(=O)c1ccc(C#N)cc1)CCO2 [Example 3, N-tert-butyl-1-(4-cyanophenylsulfonyl)-2,3-dihydro-1H-pyrido[2,3-b][1,4]oxazine-7-carboxamide] | ≤ 0.03 | ≤ 0.03 | – | –
O=C(c1cnc2c(c1)N(S(=O)(=O)c1ccccc1)CCO2)N1CCOCC1 [Example 4, morpholino(1-(phenyl-sulfonyl)-2,3-dihydro-1H-pyrido[2,3-b][1,4]oxazin-7-yl)methanone] | – | > 30 | > 30 | EC50 (human CB2 receptor; [1]): > 30 µM
CC(C)(C)NC(=O)c1cnc2c(c1)N(S(=O)(=O)c1ccc(F)cc1)CCO2 [Example 7, N-tert-butyl-1-(4-fluoro-phenylsulfonyl)-2,3-dihydro-1H-pyrido[2,3-b][1,4]oxazine-7-carboxamide] | ≤ 0.03 | ≤ 0.03 | – | –
CC(C)(C)CNC(=O)c1cnc2c(c1)N(S(=O)(=O)c1ccc(F)cc1)CCO2 [Example 11] | ≤ 0.03 | ≤ 0.03 | – | –
CC(C)(C)NC(=O)c1cnc2c(c1)N(S(=O)(=O)c1ccc(Cl)cc1)CCO2 [Example 24, N-tert-butyl-1-(4-chlorophenylsulfonyl)-2,3-dihydro-1H-pyrido[2,3-b][1,4]oxazine-7-carboxamide] | ≤ 0.03 | ≤ 0.03 | – | –
O=C(NC1CCCC1)c1cnc2c(c1)N(S(=O)(=O)c1ccc(Cl)cc1)CCO2 [Example 25, 1-(4-chlorophenyl-sulfonyl)-N-cyclopentyl-2,3-dihydro-1H-pyrido[2,3-b][1,4]oxazine-7-carboxamide] | ≤ 0.03 | ≤ 0.03 | – | –
O=C(c1cnc2c(c1)N(S(=O)(=O)c1ccc(Cl)c(Cl)c1)CCO2)N1CCN(S(=O)(=O)c2ccccc2)CC1 [Example 118, (1-(3,4-dichlorophenyl-sulfonyl)-2,3-dihydro-1H-pyrido[2,3-b][1,4]oxazin-7-yl)(4-(phenylsulfonyl)piperazin-1-yl)methanone] | – | – | – | EC50 (human CB2 receptor; [1]): > 30 µM; inverse agonist mark, rat CB2 receptor (rat CB2 receptor): 118*, 120, 123, 125, 127, 134, 143, 145, 161, 174, 175, 176, 198,
O=C(c1cnc2c(c1)N(S(=O)(=O)c1ccc(Cl)c(Cl)c1)CCO2)N1CC(O)C1 [Example 125, (1-(3,4-dichlorophenyl-sulfonyl)-2,3-dihydro-1H-pyrido[2,3-b][1,4]oxazin-7-yl)(3-hydroxyazetidin-1-yl)methanone] | – | – | > 30 | EC50 (human CB2 receptor; [1]): > 30 µM
O=C(N[C@H]1CC[C@H](O)CC1)c1cnc2c(c1)N(S(=O)(=O)c1ccc(Cl)c(Cl)c1)CCO2 [Example 134, 1-(3,4-dichlorophenyl-sulfonyl)-N-(trans-4-hydroxycyclohexyl)-2,3-dihydro-1H-pyrido[2,3-b][1,4]oxazine-7-carboxamide] | – | – | > 30 | EC50 (human CB2 receptor; [1]): > 30 µM
CCC(C)(C)NC(=O)c1cnc2c(c1)N(S(=O)(=O)N1CCC(C(F)(F)F)CC1)CCO2 [Example 151, N-tert-pentyl-1-(4-(trifluoromethyl)piperidin-1-ylsulfonyl)-2,3-dihydro-1H-pyrido[2,3-b][1,4]oxazine-7-carboxamide] | ≤ 0.03 | ≤ 0.03 | – | –
CC(C)(C)c1cc(NC(=O)c2cnc3c(c2)N(S(=O)(=O)N2CCC(C(F)(F)F)CC2)CCO3)no1 [Example 154, N-(5-tert-butylisoxazol-3-yl)-1-(4-(trifluoromethyl)piperidin-1-ylsulfonyl)-2,3-dihydro-1H-pyrido[2,3-b][1,4]oxazine-7-carboxamide] | – | ≤ 0.03 | – | inverse agonist mark, human CB2 receptor (human CB2 receptor; [2]): 121, 124, 131, 136, 137, 138, 139, 146, 150, 152, 154*, 155, 157,; inverse agonist mark, rat CB2 receptor (rat CB2 receptor): 146, 148, 149, 150, 151, 152, 153*, 154*, 155, 156, 157, 163, 164,
CC(C)(C)NC(=O)c1cnc2c(c1)N(S(=O)(=O)N1CCC(F)(F)CC1)CCO2 [Example 156, N-tert-butyl-1-(4,4-difluoropiperidin-1-ylsulfonyl)-2,3-dihydro-1H-pyrido[2,3-b][1,4]oxazine-7-carboxamide] | ≤ 0.03 | ≤ 0.03 | – | –
CC(C)(C)NC(=O)c1cnc2c(c1)N(S(=O)(=O)N1CCC(c3ccccc3)CC1)CCO2 [Example 158, N-tert-butyl-1-(4-phenylpiperidin-1-ylsulfonyl)-2,3-dihydro-1H-pyrido[2,3-b][1,4]oxazine-7-carboxamide] | > 30 | – | > 30 | –
CCC(C)(C)NC(=O)c1cnc2c(c1)N(S(=O)(=O)N1CCC(c3ccccc3)CC1)CCO2 [Example 159, N-tert-pentyl-1-(4-phenylpiperidin-1-ylsulfonyl)-2,3-dihydro-1H-pyrido[2,3-b][1,4]oxazine-7-carboxamide] | > 30 | – | > 30 | –
CC(C)(CO)CNC(=O)c1cnc2c(c1)N(S(=O)(=O)N1CCC(c3ccccc3)CC1)CCO2 [Example 161, N-(3-hydroxy-2,2-dimethylpropyl)-1-(4-phenylpiperidin-1-ylsulfonyl)-2,3-dihydro-1H-pyrido[2,3-b][1,4]oxazine-7-carboxamide] | > 30 | – | > 30 | –
CC(C)(C)c1cc(NC(=O)c2cnc3c(c2)N(S(=O)(=O)N2CCC(F)(F)C2)CCO3)no1 [Example 165, N-(5-tert-butylisoxazol-3-yl)-1-(3,3-difluoro-pyrrolidin-1-ylsulfonyl)-2,3-dihydro-1H-pyrido-[2,3-b][1,4]oxazine-7-carboxamide] | > 30 | – | – | inverse agonist mark, rat CB2 receptor (rat CB2 receptor): 108, 114, 117, 122, 126, 128, 129, 130, 141, 147, 162*, 165*, 179,
CN1CCN(S(=O)(=O)N2CCOc3ncc(C(=O)NC(C)(C)C)cc32)CC1 [Example 174, N-tert-butyl-1-(4-methylpiperazin-1-ylsulfonyl)-2,3-dihydro-1H-pyrido[2,3-b][1,4] oxazine-7-carboxamide] | > 30 | – | > 30 | –
CC(C)(C)NC(=O)c1cnc2c(c1)N(S(=O)(=O)N1CCC(Cl)CC1)CCO2 [Example 184, N-tert-butyl-1-(4-chloropiperidin-1-ylsulfonyl)-2,3-dihydro-1H-pyrido[2,3-b][1,4]oxazine-7-carboxamide] | > 30 | ≤ 0.03 | – | –
CCC(C)(C)NC(=O)c1cnc2c(c1)N(S(=O)(=O)N1CCC(Cl)CC1)CCO2 [Example 185, 1-(4-chloropiperidin-1-ylsulfonyl)-N-tert-pentyl-2,3-dihydro-1H-pyrido[2,3-b][1,4]oxazine-7-carboxamide] | > 30 | ≤ 0.03 | – | –
CC(C)(CO)CNC(=O)c1cnc2c(c1)N(S(=O)(=O)N1CCC(Cl)CC1)CCO2 [Example 187, 1-(4-chloropiperidin-1-ylsulfonyl)-N-(3-hydroxy-2,2-dimethylpropyl)-2,3-dihydro-1H-pyrido[2,3-b][1,4]oxazine-7-carboxamide] | > 30 | ≤ 0.03 | – | –
CC(C)(C)NC(=O)c1cnc2c(c1)N(S(=O)(=O)N1CCc3ccccc3C1)CCO2 [Example 188, N-tert-butyl-1-(3,4-dihydroisoquinolin-2(1H)-ylsulfonyl)-2,3-dihydro-1H-pyrido[2,3-b][1,4]oxazine-7-carboxamide] | > 30 | – | – | inverse agonist mark, human CB1 receptor (human CB1 receptor; [2]): 152, 154, 155, 165, 184, 185, 187, 188*, 212, 214, 217, 227
CCC(C)(C)NC(=O)c1cnc2c(c1)N(S(=O)(=O)N1CCc3ccccc3C1)CCO2 [Example 189, 1-(3,4-dihydroisoquinolin-2(1H)-ylsulfonyl)-N-tert-pentyl-2,3-dihydro-1H-pyrido[2,3-b][1,4]oxazine-7-carboxamide] | > 30 | – | > 30 | –
CC(C)(CO)NC(=O)c1cnc2c(c1)N(S(=O)(=O)N1CCc3ccccc3C1)CCO2 [Example 190, 1-(3,4-dihydroisoquinolin-2(1H)-ylsulfonyl)-N-(1-hydroxy-2-methylpropan-2-yl)-2,3-dihydro-1H-pyrido[2,3-b][1,4]oxazine-7-carboxamide] | > 30 | – | > 30 | –
CC(C)(CO)CNC(=O)c1cnc2c(c1)N(S(=O)(=O)N1CC(F)(F)C1)CCO2 [Example 196, 1-(3,3-difluoroazetidin-1-ylsulfonyl)-N-(3-hydroxy-2,2-dimethylpropyl)-2,3-dihydro-1H-pyrido[2,3-b][1,4]oxazine-7-carboxamide] | > 30 | ≤ 0.03 | – | –
O=C(O)CC1COCCN1C(=O)c1cnc2c(c1)N(S(=O)(=O)c1ccc(C(F)(F)F)cc1)CCO2 (stereo not shown) [Example 207] | – | – | – | EC50 (human CB2 receptor; [1]): > 30 µM; EC50 (rat CB2 receptor; change in intracellular cAMP, CHO-K1 rCB2 cells, class AR, read-out: EC50 values for rat CB2 receptor): > 30 µM
O=C(NC1(C(=O)O)CCC1)c1cnc2c(c1)N(S(=O)(=O)c1ccc(C(F)(F)F)cc1)CCO2 [Example 208, 1-(1-(4-(trifluoromethyl)phenylsulfonyl)-2,3-dihydro-1H-pyrido[2,3-b][1,4]oxazine-7-carboxamido)cyclobutanecarboxylic acid] | – | – | > 30 | EC50 (human CB2 receptor; [1]): > 30 µM
CC(C)(C)c1nnc(-c2cnc3c(c2)N(S(=O)(=O)c2ccc(F)cc2)CCO3)o1 [Example 212, 7-(5-tert-butyl-1,3,4-oxadiazol-2-yl)-1-(4-fluorophenylsulfonyl)-2,3-dihydro-1H-pyrido[2,3-b][1,4]oxazine] | ≤ 0.03 | ≤ 0.03 | – | –
CC1(C)CNC(c2cnc3c(c2)N(S(=O)(=O)c2ccc(C(F)(F)F)cc2)CCO3)=N1 [Example 224, 7-(4,4-dimethyl-4,5-dihydro-1H-imidazol-2-yl)-1-(4-(trifluoromethyl)phenylsulfonyl)-2,3-dihydro-1H-pyrido[2,3-b][1,4]oxazine] | – | – | > 30 | EC50 (human CB2 receptor; [1]): > 30 µM
